Assay results from article doi:10.1101/2025.11.04.686469, “Discovery of Host-Directed Small Molecules with Broad Anti-Leishmanial Efficacy” (bioRxiv, 2025).

Columns and labels:
THP-1 macrophages = experiment: Effect of compounds on host cell viability (MTT); format: cell-based
In short: (§1)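 Viability was read as MTT reduction: 2 h with 0.5 mg/mL, formazan dissolved in isopropanol, A560 with 670 nm background subtracted. The macrophages were PMA-differentiated THP-1 cells (150 nM, 72 h), treated 24 h at 1–50 μM or, for some compounds, 72 h at 1–300 μM.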

[1] = Effect of compounds on host cell viability (MTT); format: cell-based; details: human
In short: as §1

[2] = test system: extracellular L. mexicana promastigotes; experiment: Effect of compounds on promastigote viability (resazurin assay); format: cell-based, Leishmania mexicana
Method: The effect of compounds on extracellular promastigotes was evaluated using a resazurin-based assay as described previously. In short, late log phase Leishmania promastigotes were seeded in a 96 well plate at 1 x 10^5 parasites per well and treated with drugs (0.5 – 200 μM) for 72 hours at 25°C. Ten microliters of resazurin (0.02% w/v) were added to the treated parasites to achieve a final concentration of 0.002% w/v and incubated for 24 hours. Viability of the promastigotes was assessed by fluorescence (excitation 544 nm, emission 590 nm, SpectraMax M2, Molecular Devices).

Compound: O=C(CNCc1cccc(F)c1)Nc1ccc(-n2cc(C(F)(F)F)nc2-c2ccc(-c3ccc(C(F)(F)F)cc3)cc2)cc1 [Compound 197]
- CC50 (THP-1 macrophages): > 300 µM
- reduction in macrophage viability (THP-1 macrophages; 72hr incubation up to 300μM): Neither compound had any reduction
- CC50 at 24 h [1]: > 50 µM
- CC50 at 72 h [1]: > 300 µM
- effect on L. mexicana extracellular promastigote viability [2]: no effect
- MIC50 ([2]; Leishmania mexicana, 72-hour incubation): > 200 µM
